Laboratory results reported in paper PMC4766415 (Nature Communications, 2016).

Assays:
WT-TTR = WT-TTR (Homo sapiens, UniProt P02766); experiment: Isothermal titration calorimetry, WT-TTR
[1] = no reference given; cited from earlier work
[2] = test system: T1, TTR in human plasma (WT-TTR and V30M-TTR); experiment: [125I]T4 competition in human plasma, native gel electrophoresis; format: binding; settings: 1 mM; plasma from normal (WT-TTR) and V30M-TTR FAP patient; 1 h RT
T1 construct: human plasma from a normal (WT-TTR) and from an FAP patient carrying the V30M-TTR mutation; from tissue; host or cells: human plasma of normal donors and of V30M-TTR carriers
Excerpt: Error bars indicate s.e.m. (n=3). […] Error bars indicate s.e.m. (n=3).

[3] = cited from earlier work
[4] = test system: Rat Schwannoma cells (RN22); experiment: Caspase-3 activation by Y78F-TTR oligomers in RN22 cells; settings: Y78F-TTR aggregates 2 μM formed with 20 μM compound; 24 h exposure
human V30M-TTR = test system: T2, human V30M-TTR; experiment: T4 competition in plasma of transgenic mice after oral tolcapone; format: in vivo; settings: 30 to 300 mg kg^−1 by gavage
T2 construct: plasma samples from the transgenic mice expressing human V30M-TTR; from tissue; host or cells: plasma of transgenic mice expressing human V30M-TTR
Method: The animals were killed 1 h after the last dose. Plasma samples were obtained before dosing (t=0) and at the end of the experiment. T4 competition assays by native gel electrophoresis were performed in plasma following the same protocol as in Fig. 4a. At basal conditions (t=0), around 40% of the total radioactivity was associated with the TTR band in samples from all animals.
Plasma samples were treated with radiolabelled T4 and subjected to native PAGE. The fraction of radiolabelled T4 bound to the band corresponding to TTR is represented. Error bars indicate s.e.m. (n=4). (b) TTR tetramer stability in the plasma of control and tolcapone-treated transgenic mice was assessed by IEF under semi-denaturing conditions. The ratio between the TTR tetramers and the rest of the TTR species in the IEF gels was calculated for controls and tolcapone-treated mice. The data are expressed as fold increase of the ratio TTR tetramer/total TTR with respect to samples from vehicle-treated animals. ***P<0.001 and **P<0.01 (Student's t-test). Error bars indicate s.e.m. (n=3). […] TTR stabilization was quantified by immunoturbidity after urea denaturation with subsequent crosslinking with glutaraldehyde as detailed in the experimental section. […] White bars correspond to plasma samples crosslinked 0 h after urea addition, black bars correspond to plasma samples crosslinked after 48 h of urea denaturation. […]

[5] = test system: T3, tetrameric TTR in human plasma; experiment: Ex vivo plasma TTR stability by immunoturbidity after urea denaturation; format: biochemical; settings: 4.8 M urea, 48 h; pooled plasma of healthy volunteers
T3 construct: Plasma TTR was then immunoprecipitated; from tissue; host or cells: human plasma
Excerpt: Stabilization of plasma TTR under physiological conditions was confirmed using an immunoturbidity assay[29] (Fig. 4c). […] After urea treatment, samples were crosslinked with glutaraldehyde and the concentration of TTR determined by immunoturbidity. Treatment with urea and glutaraldehyde decreases immunoturbidity signal due to the extensive modification of denatured TTR monomers by glutaraldehyde, hampering antibody recognition. As TTR denaturation is preceded by tetramer dissociation, the signal roughly correlates with tetramer stability.
A pool of lithium-heparin plasma samples from healthy volunteers stored at −80 °C was thawed on ice. Partially clotted particles were removed by spinning the samples for 2 min at 10,000g. […] Addition volume was limited to maximum 1.5% (v/v) of sample. A control in which DMSO vehicle was added was included in the experimental design. Samples were then mixed with a urea solution (8 M in 50 mM potassium phosphate pH 7.0, 100 mM NaCl, 1 mM dithiothreitol, 1 mM EDTA) to a final urea concentration of 4.8 M, and incubated for various time points at controlled RT conditions. […] Samples were transferred to a measuring tube and read by immunoturbidity after 5 min at RT. Immunoturbidity was measured in a Siemens Automate Dimension EXL200 instrument, using the Siemens Prealbumin (PALB) reagent and calibrator according to the manufacturer's instructions. […]

[6] = general model, two ligand-binding sites

What does the source list for `Cc1ccc(C(=O)c2cc(O)c(O)c([N+](=O)[O-])c2)cc1` [tolcapone]?
TΔs1 binding entropy (WT-TTR; first ligand): 1.8 kcal/mol; Δh1 site-specific binding enthalpy (WT-TTR; first ligand): -8.7 kcal/mol; ΔH1 overall binding enthalpy (WT-TTR; [6]): -8.7 kcal/mol; ΔH2 overall binding enthalpy (WT-TTR; [6]): -18.4 kcal/mol; β2 overall association constant (WT-TTR; [6]): 7.9 × 10^14 M^−2; TΔs2 binding entropy (WT-TTR; second ligand): 0.2 kcal/mol; Δh2 site-specific binding enthalpy (WT-TTR; second ligand): -9.7 kcal/mol; half-life in plasma [1]: 2 to 3 h; radioactive T4-TTR band in the presence of compound [2]: no longer visible; blood–brain barrier crossing [3]: able to cross the blood–brain barrier; reduction in Caspase-3 activation [4]: 27.8%±6.1; amount of T4 remaining bound to TTR at the end of treatment (human V30M-TTR): decreased in a dose-dependent manner; stabilization of plasma TTR against urea denaturation [5]: stabilized TTR in a dose-responsive manner
